In a melting point compilation (Tetko et al.; mined from patent text by program, amines drawn as free bases though some values may be those of a salt) one finds melting point data, which are given here for 85 molecules.

In general, melting point refers to the temperature, or range, at which the solid turns liquid. Take `Cc1cccc(-c2[nH]c(C(C)C)nc2-c2cccc(-c3ccc(C(=O)NC4CCOCC4)cc3)c2)n1`: the melting point is 140 °C.

Turning to `CNS(=O)(=O)c1cc(C(C)(C)C)cc(CNC(C)=O)c1O`, the melting point lay within 173 to 174 °C.

`CCCCOC(=O)[C@H]1CN(c2ccc3c(c2)oc(=O)n3C)C(=O)O1`: the melting point lay in the range of 182 to 184 °C.

Regarding `Cc1nnc(-c2ccccc2)c2nc(OCc3ncnn3C)c(C3CCCC3)n12`, the melting point amounted to 137 °C.

Regarding `O=C1CC(Nc2cc([N+](=O)[O-])ccc2Cl)=NN1c1c(Cl)cc(Cl)cc1Cl`, the melting point was 278 to 280 °C.

The molecule `Cc1nc(NC(=O)c2cccc(C(F)(F)F)c2)sc1C(=O)NCc1ccccc1` yielded a melting point of 195 to 196 °C.

As to `FC(F)(F)Cn1c(-c2c(Cl)cccc2Cl)nc(-c2ccncc2)c1-c1ccc(Cl)cc1`, the melting point lay in the range of 213 to 214 °C.

Molecule `Cc1ccccc1-c1cc(N2CCOCC2)ncc1C(N)=O` returned a melting point of 144 to 145 °C.

Molecule `CCn1c(CO)nc2cccnc21` returned a melting point of 117 to 121 °C.

In turn, `CC(C)=CCCC(C)=CCc1c(-c2ccc(O)cc2O)oc2cc(O)cc(O)c2c1=O` had a melting point of 94 to 95 °C.

The molecule `CCCc1nn(C)c2c(=O)n(CCCOc3ccc(OC(C)(C)C(=O)O)cc3)c(C)nc12` displayed a melting point of 158 to 160 °C.

Regarding `COc1ccc(C(=O)Nc2ccc(C)cc2)cc1NC(=S)Nc1cc(Cl)cc(Cl)c1`, the melting point was 178 to 180 °C.

The molecule `O=C1N2CCc3ccsc3C23SC1(c1ccccc1)CC3[N+](=O)[O-]` (stereo not given) had a melting point of 192 to 196 °C.

The molecule `O=[N+]([O-])c1cnn2c1-c1ccccc1NC2C1CCCCC1` (stereo not given) came in with a melting point of 150 to 152 °C.

With `Cc1ccc(Oc2c([N+](=O)[O-])cc(C(=O)O)cc2S(N)(=O)=O)cc1`, the melting point is 236 °C.

For the molecule `CCOCc1cc(N2C(=O)C3=C(CCCC3)C2=O)c(F)cc1Br`, the melting point lay in the range of 104 to 106 °C.

On to `COc1ccc(C(=O)Nc2ccccc2)cc1NC(=S)Nc1cccc(C(F)(F)F)c1`, for which the melting point was in the range of 177 to 178 °C.

Molecule `O=C1CCC(N2C(=O)c3cccc(Nc4ccc(C5CCCCC5)cc4)c3C2=O)C(=O)N1` (stereo not given) displayed a melting point of 219 to 221 °C.

The molecule `COc1ccc2c(=O)c(-c3ccc(OCC(O)CN4CCOCC4)cc3)coc2c1` (stereo not given) yielded a melting point of 117 to 118 °C.

In the case of `O=C(O)CC(=O)N1CCSCC1`, the melting point was in the range of 119 to 120 °C.

Consider `ON=Cc1cccc2cccc(N3CCCC3)c12`, for which the melting point was 187 to 188 °C.

`CCCS(=O)(=O)c1csc2c(=O)n([C@H](C)[C@](O)(Cn3cncn3)c3ccc(F)cc3F)cnc12` registered a melting point of 115 to 122 °C.

The molecule `COc1ccc(-c2cc(=O)n(C)c(=O)n2CC(O)CNC(C)(C)C)cc1OC` (stereo not given) came in with a melting point of 123 to 125 °C.

`COc1ccc2c(c1)C(C)(C)C(CO)O2` (stereo not given) displayed a melting point of 65 to 67 °C.

Molecule `CC(C(O)c1ccc(OCc2ccccc2)c(OCc2ccccc2)c1)N1CCC(n2c(=O)[nH]c3ccccc32)CC1` (stereo not given) yielded a melting point of 146 to 148 °C.

As to `COC1=C(OC)C(=O)C2=C(CCC(CCOc3ccc(OC)cc3)CC2)C1=O`, the melting point was 76 to 77 °C.

`CCCCCCCc1ccc(C(=O)Oc2ccc(C(=O)O)c(Cl)c2)cc1` returned a melting point of 108 °C.

`COc1cccc(CC(=O)O)c1OCc1nc(OC(C)C)c(C(=O)NCc2ccc(Cl)cc2Cl)s1` displayed a melting point of 113 to 114 °C.

As to `Oc1ccc(CCc2ccc(O)cc2)cc1`, the melting point was in the range of 199 to 200 °C.

In turn, `CCn1c(C)c(C2(N(c3ccccc3)c3ccccc3)OC(=O)c3nccnc32)c2ccccc21` (stereo not given) had a melting point of 98 to 100 °C.

Regarding `O=C(O)c1ccc(Cn2nnc(-c3cccc(I)c3)n2)cc1`, the melting point lay within 241 to 242 °C.

The molecule `CC(C)(C)c1cc(Nc2ccc(C(=O)O)cc2)cc(C(C)(C)C)c1O` registered a melting point of 241 to 243 °C.

With `Cc1cc(-n2ccnc2)c2cccc(OCc3c(Cl)ccc(S(=O)(=O)N4CCC[C@H]4C(=O)N(C)CCN(C)CCCCO)c3Cl)c2n1`, the melting point is 84 °C.

For `Cc1ccccc1Sc1c(O)c2ccc(Cl)cc2[nH]c1=O`, the melting point was 296 to 299 °C.

On to `CCCCc1nc(NC(C)=O)[nH]c(=O)c1Cc1ccc(-c2ccccc2-c2nnn[nH]2)cc1`, for which the melting point is 205 to 208 °C.

Consider `O=C(O)[C@H](Cc1ccc(C(F)(F)F)o1)[C@@H](O)c1ccc(F)cc1` (racemic), for which the melting point was 86 to 87 °C.

As for `N#Cc1ccc(-c2csc(Nc3ccccc3O)n2)cc1`, the melting point lay within 278 to 280 °C.

`CC(C)[Si](C(C)C)(C(C)C)C1c2ccccc2-c2ccccc21` yielded a melting point of 122 to 123 °C.

On to `Cc1c(C)n(Cc2ccccc2)c2ncnc(Nc3cccc(Cl)c3)c12`, for which the melting point lay within 132 to 133 °C.

For `CCOC(=O)C1CCC(n2nc(-c3c(-c4ccccc4)nn4ccccc34)ccc2=O)CC1` (stereo not given), the melting point is 156 to 160 °C.

On to `O=[N+]([O-])c1cccc2c(O)ccnc12`, for which the melting point fell in the range of 204 to 206 °C.

`C=CC(=O)C1C(=O)N(c2ccc(OC)cc2)C1c1ccccc1Cl` (stereo not given) returned a melting point of 99 to 100 °C.

Regarding `O=C1Nc2ccccc2S(=O)(=O)c2ccccc21`, the melting point fell in the range of 284 to 286 °C.

`CCCS(=O)(=O)Nc1c(C(=O)c2ccccc2)[nH]c2cc(Cl)ccc12` returned a melting point of 164 to 167 °C.

`CNC(=O)Nc1snc(S(C)(=O)=O)c1C(N)=O` displayed a melting point of 227 to 228 °C.

On to `CCOc1ccc2nc(Cl)c(C=NOC)cc2c1`, for which the melting point lay within 142 to 144 °C.

`Cc1c(C(=O)NCc2ccc3c(Br)c(O)ccc3c2)oc2ccccc12` had a melting point of 194 to 197 °C.

For `CC(C)c1cc(CN2C(=O)C3(COc4cc5c(cc43)OCO5)c3ccccc32)on1` (stereo not given), the melting point was 132 to 136 °C.

The molecule `CCCCCCc1ncc(C(=O)O)s1` gave a melting point of 73 °C.

`COc1ccc(CSc2ccc3c(c2)C=CC(C)(C)O3)cc1` displayed a melting point of 58 to 59 °C.

As to `CS(=O)(=O)c1ccc(-n2nc(C(F)(F)F)nc2-c2ccc(Br)cc2)nc1`, the melting point is 143 to 145 °C.

Turning to `CCOC(=O)c1ccccc1NC(=O)Nc1ccccc1I`, the melting point lay in the range of 162 to 164 °C.

As for `COC(=O)C(CC(C)([N+](=O)[O-])[N+](=O)[O-])C(=O)OC`, the melting point worked out at 44 °C.

`COC1CCC2C3CCC4CC(=NO)C(C)CC4(C)C3CCC12C` (stereo not given) showed a melting point of 203 to 211 °C.

Molecule `Nc1nc(/C(=N/OCc2nnn[nH]2)C(=O)O)cs1` had a melting point of 151 to 152 °C.

For the molecule `CCOC(=O)c1cn(C)c2cnc3c(F)c(Cl)c(N4CCN(c5ccc(C)c(F)c5)CC4)cc3c2c1=O`, the melting point was determined as 350 °C.

`Cn1c(=O)c(-c2ccc(Cl)cc2Cl)cc2c3cc(-c4csc(COC(=O)C(C)(C)C)n4)ccc3n(C)c21` came in with a melting point of 193 to 195 °C.

`O=c1c(Cl)c(Cl)cnn1-c1cc([N+](=O)[O-])c(Cl)cc1F` gave a melting point of 168 °C.

Take `Cc1ccccc1C(=O)N[C@@H](CC(C)C)C(=O)N[C@@H](C(C)C)[C@@H](O)c1c(-c2ccccc2)c1=O`: the melting point is 101 to 105 °C.

In turn, `Cc1nc(-n2c(=O)ccc3cc(OCc4ccccc4)ccc32)sc1C(=O)NCc1ccccc1` registered a melting point of 213 to 216 °C.

Molecule `CC(Br)c1cccc2c(-c3ccccc3)onc12` (stereo not given) returned a melting point of 73 to 77 °C.

The molecule `COc1cc(C)c(C(=O)c2c(Cl)cnc(Cl)c2C(F)(F)F)c(OC)c1OC` had a melting point of 106 to 109 °C.

The molecule `O=c1c(Cl)c(OCc2ccc(Cl)cc2)cnn1-c1ccc(Cl)cn1` returned a melting point of 167 to 169 °C.

As to `CCCCCCCCCCCCNC(=O)CSCc1cc(C(C)(C)C)c(O)c(C(C)(C)C)c1`, the melting point lay within 43 to 46 °C.

The molecule `COc1ccc(-c2nc3scc(-c4cc(C(C)(C)C)c(O)c(C(C)(C)C)c4)n3c2-c2ccc(OC)cc2)cc1` gave a melting point of 236 to 237 °C.

For the molecule `CCCCCCC/C=C/C(=O)NCCN1CCCC1`, the melting point was 56 to 58 °C.

`N#Cc1nn(-c2c(Cl)cc(C(F)(F)F)cc2Cl)c(N)c1C1(C(F)(F)F)CC1` gave a melting point of 178 to 179 °C.

As for `Cc1cc(Cl)cc(C(=O)Nc2cccc(Cl)n2)n1`, the melting point is 176 °C.

Turning to `COC(=O)C1=NC2=COc3c(OC)cccc3N2C1C(=O)O` (stereo not given), the melting point fell in the range of 167 to 168 °C.

`Nc1nc(N)c(-c2cccc(Cl)c2Cl)c(C(F)(F)F)n1` gave a melting point of 218 to 219 °C.

The molecule `Cc1ccc2c(c1)SC(C(F)(F)F)C(C(=O)O)=C2` (stereo not given) yielded a melting point of 187 to 192 °C.

As to `CCCCCC#CCC(Cc1cccnc1)(C(=O)NO)S(=O)(=O)c1ccc(OC)cc1` (stereo not given), the melting point is 146 °C.

As to `N#CCOc1cc2c(cc1C#Cc1ccccc1)NC(=O)CC(c1cccc(C#N)c1)=N2`, the melting point turned out to be 212 °C.

`CNS(=O)(=O)c1cccc(NC(=O)c2cnn3c(C(F)F)cc(-c4ccc(C(F)(F)F)cc4)nc23)c1` had a melting point of 255 °C.

Take `COC(=O)c1nn(Cc2cccc(NC(=O)OC(C)(C)C)c2)c2c1CCc1cc(OCc3cncnc3)ccc1-2`: the melting point was 221 to 222 °C.

Take `O=C1CCC(c2ccc(-n3cnc4ccccc43)cc2)=NN1`: the melting point fell in the range of 262 to 264 °C.

Turning to `C=CCN(CC)C(=O)n1cnc(S(=O)CC)n1` (stereo not given), the melting point lay within 59 to 61 °C.

For `O=C(O)c1ccc(Br)cc1COc1ccccc1`, the melting point lay in the range of 160 to 163 °C.

Regarding `NC(=O)Cc1c[nH]c2cc(OCc3ccccc3)ccc12`, the melting point is 189 to 192 °C.

With `CC(C)(C)OC(=O)Nc1ccc(-c2ccccc2F)cc1NC(=O)CC(=O)c1ccc(C#N)s1`, the melting point stood at 201 °C.

Consider `CCOC(c1ccc(Cl)c2nc3n(c12)CCCN3c1ccc(OC)nc1C)C(F)(F)F` (stereo not given), for which the melting point is 168 to 170 °C.

Molecule `O=S(=O)(c1ccc(-c2ccc(C3COC(c4c(F)cccc4F)=N3)cc2)cc1)C(F)F` (stereo not given) had a melting point of 107 to 111 °C.

The molecule `COc1cc(COc2cc(N)c(Cl)cc2C(=O)CCCCN2CCCCC2)cc(OC)c1` had a melting point of 128 to 130 °C.

For `CC(=O)N1N=C(c2ccncc2)OC1c1ccc(Cl)c([N+](=O)[O-])c1` (stereo not given), the melting point came out at 122 °C.

For the molecule `CC(C)N1C(=O)c2cccc3c(S(C)(=O)=O)ccc1c23`, the melting point was 164 to 165 °C.
